From US11638707B2, “Substituted amino triazoles useful as chitinase inhibitors” (Molecure S.A., priority 2019, dated 2023)
Where a name gives a salt, the structure may show the parent alone.

Columns and labels:
recombinant human AMCase = recombinant human AMCase (Homo sapiens (Human), UniProt Q9BZP6); test: Human AMCase activity assay; type: biochemical; conditions: citrate buffer pH 5.2, 37° C., 60 minutes, read-out: hAMCase, IC50
Description: (§1) The assay was run in the 96-well plate format, each reaction in the total volume of 100 μL. 4-Methylumbelliferyl B-D-N,N′-diacetylchitobioside hydrate was used as a substrate for the enzyme. Upon hydrolysis by AMCase, the substrate releases 4-methylumbelliferyl (4MU) that, when ionized in basic pH, emits fluorescence at 460 nm. Briefly, 40 μL of a substrate was added to each well, followed by 10 μL of compound dilution and 50 μL of hAMCase recombinant enzyme solution. The reaction was carried out in citrate buffer, pH 5.2, in the dark, at 37° C. for 60 minutes with shaking. […] The IC50 values were calculated using GraphPad Prism.

recombinant human CHIT1 = recombinant human CHIT1 (Homo sapiens (Human), UniProt Q13231); test: Human CHIT1 activity assay; type: biochemical; conditions: recombinant human CHIT1, citrate buffer pH 5.2, 37° C., 60 minutes; read-out: hCHIT1, IC50
Chain of recombinant human CHIT1 (Q13231 22-466): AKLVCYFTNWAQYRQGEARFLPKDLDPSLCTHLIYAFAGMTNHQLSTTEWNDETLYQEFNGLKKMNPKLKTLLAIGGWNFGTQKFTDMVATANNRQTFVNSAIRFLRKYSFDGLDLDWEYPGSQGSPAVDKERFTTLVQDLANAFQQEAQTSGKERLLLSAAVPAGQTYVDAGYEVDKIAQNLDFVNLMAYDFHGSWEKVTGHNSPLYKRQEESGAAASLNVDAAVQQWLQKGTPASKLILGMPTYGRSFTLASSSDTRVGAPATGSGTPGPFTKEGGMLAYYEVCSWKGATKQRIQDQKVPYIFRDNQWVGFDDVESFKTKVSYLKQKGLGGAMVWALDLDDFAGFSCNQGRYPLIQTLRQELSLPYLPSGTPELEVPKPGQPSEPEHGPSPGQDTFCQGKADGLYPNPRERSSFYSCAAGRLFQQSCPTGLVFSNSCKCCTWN
Description: as §1, with “4-methylumbelliferyl β-D-N,N′,N″-triacetylchitotriose” for “4-Methylumbelliferyl B-D-N,N′-diacetylchitobioside hydrate”, “CHIT1,” for “AMCase,”, “CHIT1” for “hAMCase”

hERG channel = hERG channel (Homo sapiens (Human), UniProt Q12809); test: Human ERG channel binding assay (fluorescence polarization); conditions: Table 1; tracer displacement, 4 h at room temperature
Chain of hERG channel (Q12809 whole entry): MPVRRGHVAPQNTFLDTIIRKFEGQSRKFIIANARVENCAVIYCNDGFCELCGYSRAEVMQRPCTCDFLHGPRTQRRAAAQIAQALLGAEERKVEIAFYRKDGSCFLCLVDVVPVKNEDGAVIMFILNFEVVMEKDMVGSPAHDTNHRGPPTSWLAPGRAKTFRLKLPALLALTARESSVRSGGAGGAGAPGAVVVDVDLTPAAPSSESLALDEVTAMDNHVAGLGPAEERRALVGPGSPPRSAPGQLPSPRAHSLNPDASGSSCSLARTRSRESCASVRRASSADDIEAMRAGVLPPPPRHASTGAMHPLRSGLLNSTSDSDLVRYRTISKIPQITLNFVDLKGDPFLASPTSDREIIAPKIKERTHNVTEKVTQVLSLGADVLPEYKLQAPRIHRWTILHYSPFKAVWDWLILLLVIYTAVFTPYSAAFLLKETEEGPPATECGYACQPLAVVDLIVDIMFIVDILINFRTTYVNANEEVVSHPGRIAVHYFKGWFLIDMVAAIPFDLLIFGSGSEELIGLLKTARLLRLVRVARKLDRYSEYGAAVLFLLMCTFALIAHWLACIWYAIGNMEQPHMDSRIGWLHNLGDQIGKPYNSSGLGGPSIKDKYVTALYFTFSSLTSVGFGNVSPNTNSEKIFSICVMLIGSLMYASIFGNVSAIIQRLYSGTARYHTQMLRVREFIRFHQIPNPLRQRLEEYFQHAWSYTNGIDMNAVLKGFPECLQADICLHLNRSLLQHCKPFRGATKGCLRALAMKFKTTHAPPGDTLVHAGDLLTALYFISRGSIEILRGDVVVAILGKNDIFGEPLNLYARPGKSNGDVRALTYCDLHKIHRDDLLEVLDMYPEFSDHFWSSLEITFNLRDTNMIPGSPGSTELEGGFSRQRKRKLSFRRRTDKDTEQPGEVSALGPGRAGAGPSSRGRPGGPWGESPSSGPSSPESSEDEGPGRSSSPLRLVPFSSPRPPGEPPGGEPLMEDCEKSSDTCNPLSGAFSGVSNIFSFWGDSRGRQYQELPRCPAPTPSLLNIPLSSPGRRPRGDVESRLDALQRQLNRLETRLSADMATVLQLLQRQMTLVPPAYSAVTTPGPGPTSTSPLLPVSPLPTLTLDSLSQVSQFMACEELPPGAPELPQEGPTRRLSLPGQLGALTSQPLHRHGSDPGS
Description: Human ERG Channel Binding Assay
Fluorescence polarization assay based on the principle of fluorescence polarization where a red-shifted fluorescent tracer is displaced from the hERG channel by compounds that bind to the channel was used to establish the binding of the compounds to hERG channel. […] Briefly, the compounds in serial dilutions were incubated with a membrane fraction containing hERG channel protein and a high-affinity red fluorescent hERG channel ligand in black 384-well plate. […] The IC50 values were calculated using GraphPad Prism.

Chain of recombinant human AMCase (Q9BZP6 22-476): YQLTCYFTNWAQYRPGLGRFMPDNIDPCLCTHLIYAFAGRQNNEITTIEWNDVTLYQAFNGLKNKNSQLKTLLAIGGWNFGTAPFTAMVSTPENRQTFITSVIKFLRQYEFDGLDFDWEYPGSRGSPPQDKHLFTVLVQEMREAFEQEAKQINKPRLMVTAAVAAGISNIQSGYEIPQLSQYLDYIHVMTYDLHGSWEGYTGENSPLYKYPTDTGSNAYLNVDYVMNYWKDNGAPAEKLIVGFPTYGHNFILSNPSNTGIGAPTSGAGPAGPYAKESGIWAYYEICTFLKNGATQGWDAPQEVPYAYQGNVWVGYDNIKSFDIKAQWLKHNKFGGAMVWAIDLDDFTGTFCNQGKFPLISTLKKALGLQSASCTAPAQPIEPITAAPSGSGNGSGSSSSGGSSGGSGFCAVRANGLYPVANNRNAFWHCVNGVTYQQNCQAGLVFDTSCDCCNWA

Compound	IC50 (recombinant human AMCase) [µM]	IC50 (recombinant human CHIT1) [µM]	IC50 (hERG channel) [µM]
Nc1nnc(N2CCC(N3C[C@H](Cn4cncn4)OC[C@@H]3Cc3ccc(Cl)cc3)CC2)[nH]1 [Example 27, 5-(4-((2R,5S)-2-((1H-1,2,4-triazol-1-yl)methyl)-5-(4-chlorobenzyl)morpholino)piperidin-1-yl)-4H-1,2,4-triazol-3-amine 2,2,2-trifluoroacetate]	< 0.1	< 0.1	> 100
Nc1nnc(N2CCC(N3C[C@H](CN4CCCC4)OC[C@@H]3Cc3ccc(Cl)cc3)CC2)[nH]1 [Example 28, 5-(4-((2S,5S)-5-(4-chlorobenzyl)-2-(pyrrolidin-1-ylmethyl)morpholino)piperidin-1-yl)-4H-1,2,4-triazol-3-amine 2,2,2-trifluoroacetate]	< 0.1	< 0.1	> 100
Nc1nnc(N2CCC(N3C[C@H](CN4CCC(F)(F)C4)OC[C@@H]3Cc3ccc(Cl)cc3)CC2)[nH]1 [Example 29, 5-(4-((2S,5S)-5-(4-chlorobenzyl)-2-((3,3-difluoropyrrolidin-1-yl)methyl)-morpholino)piperidin-1-yl)-4H-1,2,4-triazol-3-amine 2,2,2-trifluoroacetate]	< 0.1	< 0.1	> 100
Nc1nnc(N2CCC(N3C[C@H](CN4CC[C@H](O)C4)OC[C@@H]3Cc3ccc(Cl)cc3)CC2)[nH]1 [Example 30, (S)-1-(((2S,5S)-4-(1-(5-amino-4H-1,2,4-triazol-3-yl)piperidin-4-yl)-5-(4-chlorobenzyl)morpholin-2-yl)methyl)pyrrolidin-3-ol 2,2,2-trifluoroacetate]	< 0.1	0.1 to 1	> 100
Nc1nnc(N2CCC(N3C[C@H](CN4CC[C@@H](O)C4)OC[C@@H]3Cc3ccc(Cl)cc3)CC2)[nH]1 [Example 31, (R)-1-(((2S,5S)-4-(1-(5-amino-4H-1,2,4-triazol-3-yl)piperidin-4-yl)-5-(4-chlorobenzyl)morpholin-2-yl)methyl)pyrrolidin-3-ol 2,2,2-trifluoroacetate]	< 0.1	0.1 to 1	> 100
C[S+]([O-])C[C@H]1CN(C2CCN(c3nnc(N)[nH]3)CC2)[C@@H](Cc2ccc(Cl)cc2)CO1 (stereo partly drawn) [Example 32, 5-(4-((2R,5S)-5-(4-chlorobenzyl)-2-((methylsulfinyl)methyl)morpholino)piperidin-1-yl)-4H-1,2,4-triazol-3-amine dihydrochloride]	< 0.1	< 0.1	> 100
CS(=O)(=O)C[C@H]1CN(C2CCN(c3nnc(N)[nH]3)CC2)[C@@H](Cc2ccc(Cl)cc2)CO1 [Example 33, 5-(4-((2R,5S)-5-(4-chlorobenzyl)-2-((methylsulfonyl)methyl)morpholino)piperidin-1-yl)-4H-1,2,4-triazol-3-amine dihydrochloride]	< 0.1	< 0.1	> 100
Cc1cc([C@H]2CN(C3CCN(c4nnc(N)[nH]4)CC3)[C@@H](Cc3ccc(Cl)cc3)CO2)[nH]n1 [Example 34, 5-(4-((2R,5S)-5-(4-chlorobenzyl)-2-(3-methyl-1H-pyrazol-5-yl)morpholino)-piperidin-1-yl)-4H-1,2,4-triazol-3-amine 2,2,2-trifluoroacetate]	< 0.1	< 0.1	25 to 100
Nc1nnc(N2CCC(N3C[C@H](Cn4cc(F)cn4)OC[C@@H]3Cc3ccc(Cl)cc3)CC2)[nH]1 [Example 36, 5-(4-((2R,5S)-5-(4-chlorobenzyl)-2-((4-fluoro-1H-pyrazol-1-yl)methyl)-morpholino)piperidin-1-yl)-4H-1,2,4-triazol-3-amine 2,2,2-trifluoroacetate]	< 0.1	< 0.1	10 to 25
Nc1nnc(N2CCC(N3C[C@H](CN4CC(F)C4)OC[C@@H]3Cc3ccc(Cl)cc3)CC2)[nH]1 [Example 37, 5-(4-((2S,5S)-5-(4-chlorobenzyl)-2-((3-fluoroazetidin-1-yl)methyl)morpholino)-piperidin-1-yl)-4H-1,2,4-triazol-3-amine 2,2,2-trifluoroacetate]	< 0.1	< 0.1	25 to 100
Nc1nnc(N2CCC(N3C[C@H](COCC(F)(F)F)OC[C@@H]3Cc3ccc(Cl)cc3)CC2)[nH]1 [Example 39, 5-(4-((2R,5S)-5-(4-chlorobenzyl)-2-((2,2,2-trifluoroethoxy)methyl)morpholino)-piperidin-1-yl)-4H-1,2,4-triazol-3-amine 2,2,2-trifluoroacetate]	< 0.1	< 0.1	1 to 10
CSC[C@H]1CN(C2CCN(c3nnc(N)[nH]3)CC2)[C@@H](Cc2ccc(Cl)cc2)CO1 [Example 41, 5-(4-((2R,5S)-5-(4-chlorobenzyl)-2-((methylthio)methyl)morpholino)piperidin-1-yl)-4H-1,2,4-triazol-3-amine dihydrochloride]	< 0.1	< 0.1	25 to 100
Nc1nnc(N2CCC(N3C[C@H](Cn4cc(Cl)cn4)OC[C@@H]3Cc3ccc(Cl)cc3)CC2)[nH]1 [Example 44, 5-(4-((2R,5S)-2-((4-chloro-1H-pyrazol-1-yl)methyl)-5-(4-chlorobenzyl)-morpholino)piperidin-1-yl)-4H-1,2,4-triazol-3-amine 2,2,2-trifluoroacetate]	< 0.1	< 0.1	1 to 10
CS(=O)(=O)CCNC(=O)[C@H]1CN(C2CCN(c3nnc(N)[nH]3)CC2)[C@@H](Cc2ccc(Cl)cc2)CO1 [Example 45, (2R,5S)-4-(1-(5-amino-4H-1,2,4-triazol-3-yl)piperidin-4-yl)-5-(4-chlorobenzyl)-N-(2-(methylsulfonyl)ethyl)morpholine-2-carboxamide 2,2,2-trifluoroacetate]	< 0.1	< 0.1	> 100
CNS(=O)(=O)CCNC(=O)[C@H]1CN(C2CCN(c3nnc(N)[nH]3)CC2)[C@@H](Cc2ccc(Cl)cc2)CO1 [Example 46, (2R,5S)-4-(1-(5-amino-4H-1,2,4-triazol-3-yl)piperidin-4-yl)-5-(4-chlorobenzyl)-N-(2-(N-methylsulfamoyl)ethyl)morpholine-2-carboxamide 2,2,2-trifluoroacetate]	< 0.1	< 0.1	> 100
Nc1nnc(N2CCC(N3C[C@H](Cn4ccnc4)OC[C@@H]3Cc3ccc(Cl)cc3)CC2)[nH]1 [Example 47, 5-(4-((2R,5S)-2-((1H-imidazol-1-yl)methyl)-5-(4-chlorobenzyl)morpholino)-piperidin-1-yl)-4H-1,2,4-triazol-3-amine 2,2,2-trifluoroacetate]	< 0.1	< 0.1	10 to 25
CN(C)C(=O)OC[C@H]1CN(C2CCN(c3nnc(N)[nH]3)CC2)[C@@H](Cc2ccc(Cl)cc2)CO1 [Example 48, ((2R,5S)-4-(1-(5-amino-4H-1,2,4-triazol-3-yl)piperidin-4-yl)-5-(4-chlorobenzyl)morpholin-2-yl)methyl dimethylcarbamate 2,2,2-trifluoroacetate]	< 0.1	< 0.1	25 to 100
Cc1coc([C@H]2CN(C3CCN(c4nnc(N)[nH]4)CC3)[C@@H](Cc3ccc(Cl)cc3)CO2)n1 [Example 49, 5-(4-((2R,5S)-5-(4-chlorobenzyl)-2-(4-methyloxazol-2-yl)morpholino)piperidin-1-yl)-4H-1,2,4-triazol-3-amine 2,2,2-trifluoroacetate]	< 0.1	< 0.1	10 to 25
Cc1nc([C@H]2CN(C3CCN(c4nnc(N)[nH]4)CC3)[C@@H](Cc3ccc(Cl)cc3)CO2)oc1C [Example 50, 5-(4-((2R,5S)-5-(4-chlorobenzyl)-2-(4,5-dimethyloxazol-2-yl)morpholino)piperidin-1-yl)-4H-1,2,4-triazol-3-amine 2,2,2-trifluoroacetate]	< 0.1	< 0.1	1 to 10
CC1CN(C[C@H]2CN(C3CCN(c4nnc(N)[nH]4)CC3)[C@@H](Cc3ccc(Cl)cc3)CO2)C1 [Example 51, 5-(4-((2S,5S)-5-(4-chlorobenzyl)-2-((3-methylazetidin-1-yl)methyl)morpholino)-piperidin-1-yl)-4H-1,2,4-triazol-3-amine 2,2,2-trifluoroacetate]	< 0.1	0.1 to 1	25 to 100
Nc1nnc(N2CCC(N3C[C@H](CN4CCCCC4)OC[C@@H]3Cc3ccc(Cl)cc3)CC2)[nH]1 [Example 52, 5-(4-((2S,5S)-5-(4-chlorobenzyl)-2-(piperidin-1-ylmethyl)morpholino)piperidin-1-yl)-4H-1,2,4-triazol-3-amine 2,2,2-trifluoroacetate]	< 0.1	0.1 to 1	25 to 100
